What was measured:
Type in all cases: in vivo
[1] = system: windgrass (Apera spica-venti); test: Test B postemergence plant response
In short: (§1)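 Visual ratings from 0 (no effect) to 100 (complete control), made against controls 13–15 days after treatment, kept in a greenhouse. Compounds were applied postemergence to potted plants at the 1- to 4-leaf stage (2–18 cm).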

[2] = system: chickweed (Stellaria media); test: Test B postemergence plant response
In short: as §1

[3] = system: canarygrass (Phalaris minor); test: Test B postemergence plant response
In short: as §1

[4] = system: cocklebur (Xanthium strumarium); test: Test B pre-/postemergence plant response
In short: (§2)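 Visual injury, 0–100 scale (100 = complete control), rated against controls after 13 to 15 days in greenhouse. Pre-emergence: seeds in loam/sand soil, treated at planting. Post-emergence: 1- to 4-leaf plants (2 to 18 cm) in peat/vermiculite medium. Compounds formulated in non-phytotoxic solvent with surfactant.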

[5] = system: ragweed (common ragweed, Ambrosia elatior); test: Test B pre-/postemergence plant response
In short: as §2

[6] = system: green foxtail (Setaria viridis); test: Test B pre-/postemergence plant response
In short: as §2

[7] = system: wild oat (Avena fatua); test: Test B pre-/postemergence plant response
In short: as §2

[8] = system: velvetleaf (Abutilon theophrasti); test: Test B pre-/postemergence plant response
In short: as §2

[9] = system: bermudagrass (Cynodon dactylon); test: Test B pre-/postemergence plant response
In short: as §2

[10] = system: soybean (Glycine max); test: Test B pre-/postemergence plant response
In short: as §2

[11] = system: downy bromegrass (Bromus tectorum); test: Test B pre-/postemergence plant response
In short: as §2

[12] = system: giant foxtail (Setaria faberii); test: Test B pre-/postemergence plant response
In short: as §2

[13] = system: wheat (Triticum aestivum); test: Test B pre-/postemergence plant response
In short: as §2

[14] = system: yellow nutsedge (Cyperus esculentus); test: Test B pre-/postemergence plant response
In short: as §2

[15] = system: blackgrass (Alopecurus myosuroides); test: Test B pre-/postemergence plant response
In short: as §2

[16] = system: morningglory (Ipomoea coccinea); test: Test B pre-/postemergence plant response
In short: as §2

[17] = system: johnsongrass (Sorghum halepense); test: Test B pre-/postemergence plant response
In short: as §2

[18] = system: kochia (Kochia scoparia); test: Test B pre-/postemergence plant response
In short: as §2

[19] = 31 g ai/ha, postemergence, scale 0 to 100, 0 is no effect, 100 is complete control
[20] = Postemergence, 62 g ai/ha, scale 0 (no effect) to 100 (complete control), 13 to 15 days
[21] = Postemergence, 125 g ai/ha, visual rating after 13 to 15 days, scale 0 (no effect) to 100 (complete control)
[22] = Postemergence, 250 g ai/ha, scale 0 to 100
[23] = 250 g ai/ha, Preemergence, 0 to 100 scale
[24] = Preemergence, 31 g ai/ha, scale 0 to 100 (0 no effect, 100 complete control)
[25] = Preemergence, 62 g ai/ha, scale 0 to 100, 0 no effect, 100 complete control
[26] = Preemergence, 125 g ai/ha, 0 to 100 scale
[27] = 62 g ai/ha, postemergence, 0 is no effect, 100 is complete control, 13 to 15 days
[28] = Postemergence, 250 g ai/ha, scale 0 to 100 (0 no effect, 100 complete control)

Structure (SMILES): CCn1c(-c2ccccc2)ncc(C(=O)C2=C(O)CCCC2=O)c1=O [Compound 49]
- Plant response rating, Windgrass [1, 19]: 0
- Plant response rating, Windgrass [1, 20]: 0
- Plant response rating, Windgrass [1, 21]: 5
- Plant response rating, Chickweed [2, 19]: 75
- Plant response rating, Chickweed [2, 20]: 75
- Plant response rating, Chickweed [2, 21]: 80
- Chickweed plant response rating [2, 22]: 90
- Plant response rating, Canarygrass [3, 19]: 0
- Plant response rating, Canarygrass [3, 20]: 0
- Plant response rating, Canarygrass [3, 21]: 0
- Canarygrass plant response rating [3, 22]: 0
- Plant response rating, Cocklebur [4, 19]: 65
- Plant response rating, Cocklebur [4, 23]: 55
- Plant response rating, Cocklebur [4, 20]: 80
- Plant response rating, Cocklebur [4, 21]: 80
- Cocklebur plant response rating [4, 22]: 85
- Plant response rating, Cocklebur [4, 24]: 0
- Plant response rating, Cocklebur [4, 25]: 20
- Cocklebur plant response rating [4, 26]: 45
- Plant response rating, Ragweed [5, 19]: 75
- Plant response rating, Ragweed [5, 23]: 95
- Plant response rating, Ragweed [5, 20]: 80
- Plant response rating, Ragweed [5, 21]: 80
- Plant response rating, Ragweed [5, 24]: 70
- Ragweed plant response rating [5, 26]: 80
- Plant response rating, Foxtail, Green [6, 19]: 50
- Plant response rating, Foxtail, Green [6, 23]: 30
- Plant response rating, Foxtail, Green [6, 20]: 50
- Plant response rating, Foxtail, Green [6, 21]: 75
- Foxtail, Green plant response rating [6, 22]: 90
- Plant response rating, Foxtail, Green [6, 24]: 0
- Plant response rating, Foxtail, Green [6, 25]: 0
- Foxtail, Green plant response rating [6, 26]: 5
- Plant response rating, Oat, Wild [7, 19]: 0
- Plant response rating, Oat, Wild [7, 23]: 0
- Plant response rating, Oat, Wild [7, 20]: 5
- Plant response rating, Oat, Wild [7, 21]: 5
- Plant response rating, Oat, Wild [7, 24]: 0
- Oat, Wild plant response rating [7, 26]: 0
- Plant response rating, Velvetleaf [8, 19]: 90
- Plant response rating, Velvetleaf [8, 23]: 100
- Plant response rating, Velvetleaf [8, 20]: 95
- Plant response rating, Velvetleaf [8, 21]: 98
- Plant response rating, Velvetleaf [8, 24]: 95
- Velvetleaf plant response rating [8, 26]: 100
- Plant response rating, Bermudagrass [9, 19]: 75
- Plant response rating, Bermudagrass [9, 23]: 100
- Plant response rating, Bermudagrass [9, 20]: 85
- Plant response rating, Bermudagrass [9, 21]: 95
- Bermudagrass plant response rating [9, 22]: 98
- Bermudagrass plant response rating [9, 26]: 98
- Plant response rating, Soybean [10, 19]: 55
- Plant response rating, Soybean [10, 23]: 85
- Plant response rating, Soybean [10, 20]: 65
- Plant response rating, Soybean [10, 21]: 85
- Plant response rating, Soybean [10, 24]: 0
- Soybean plant response rating [10, 26]: 85
- Plant response rating, Bromegrass, Downy [11, 19]: 0
- Plant response rating, Bromegrass, Downy [11, 20]: 0
- Plant response rating, Bromegrass, Downy [11, 21]: 0
- Bromegrass, Downy plant response rating [11, 22]: 5
- Plant response rating, Bromegrass, Downy [11, 24]: 0
- Plant response rating, Bromegrass, Downy [11, 25]: 0
- Bromegrass, Downy plant response rating [11, 26]: 0
- Plant response rating, Foxtail, Giant [12, 19]: 45
- Plant response rating, Foxtail, Giant [12, 23]: 45
- Plant response rating, Foxtail, Giant [12, 20]: 60
- Plant response rating, Foxtail, Giant [12, 21]: 70
- Foxtail, Giant plant response rating [12, 22]: 75
- Plant response rating, Foxtail, Giant [12, 24]: 0
- Plant response rating, Foxtail, Giant [12, 25]: 0
- Foxtail, Giant plant response rating [12, 26]: 20
- Plant response rating, Wheat [13, 19]: 0
- Plant response rating, Wheat [13, 23]: 0
- Plant response rating, Wheat [13, 20]: 5
- Plant response rating, Wheat [13, 21]: 15
- Plant response rating, Wheat [13, 24]: 0
- Wheat plant response rating [13, 26]: 0
- Plant response rating, Nutsedge, Yellow [14, 19]: 65
- Plant response rating, Nutsedge, Yellow [14, 23]: 90
- Plant response rating, Nutsedge, Yellow [14, 20]: 65
- Plant response rating, Nutsedge, Yellow [14, 21]: 70
- Plant response rating, Nutsedge, Yellow [14, 24]: 60
- Nutsedge, Yellow plant response rating [14, 26]: 85
- Plant response rating, Blackgrass [15, 19]: 0
- Plant response rating, Blackgrass [15, 23]: 0
- Plant response rating, Blackgrass [15, 20]: 0
- Plant response rating, Blackgrass [15, 21]: 0
- Blackgrass plant response rating [15, 22]: 30
- Plant response rating, Blackgrass [15, 24]: 0
- Plant response rating, Blackgrass [15, 25]: 0
- Blackgrass plant response rating [15, 26]: 0
- Plant response rating, Morningglory [16, 19]: 65
- Plant response rating, Morningglory [16, 23]: 85
- Plant response rating, Morningglory [16, 20]: 80
- Plant response rating, Morningglory [16, 21]: 80
- Plant response rating, Morningglory [16, 24]: 45
- Plant response rating, Morningglory [16, 25]: 80
- Morningglory plant response rating [16, 26]: 80
- Plant response rating, Johnsongrass [17, 19]: 0
- Plant response rating, Johnsongrass [17, 23]: 10
- Plant response rating, Johnsongrass [17, 20]: 0
- Plant response rating, Johnsongrass [17, 21]: 10
- Johnsongrass plant response rating [17, 22]: 10
- Plant response rating, Johnsongrass [17, 24]: 0
- Plant response rating, Johnsongrass [17, 25]: 0
- Johnsongrass plant response rating [17, 26]: 0
- Plant response rating, Kochia [18, 19]: 55
- Plant response rating, Kochia [18, 20]: 65
- Plant response rating, Kochia [18, 21]: 80
- Kochia plant response rating [18, 22]: 90

Structure (SMILES): COCCOCCn1c(-c2ccccc2)ncc(C(=O)C2=C(O)CCCC2=O)c1=O [Compound 91]
- Plant response rating, Windgrass [1, 19]: 10
- Windgrass plant response rating (0 to 100 scale) [1, 27]: 40
- Plant response rating, Windgrass [1, 28]: 65
- Plant response rating, Chickweed [2, 19]: 85
- Chickweed plant response rating (0 to 100 scale) [2, 27]: 95
- Plant response rating, Chickweed [2, 21]: 98
- Plant response rating, Chickweed [2, 28]: 100
- Plant response rating, Canarygrass [3, 19]: 25
- Canarygrass plant response rating (0 to 100 scale) [3, 27]: 55
- Plant response rating, Canarygrass [3, 21]: 65
- Plant response rating, Canarygrass [3, 28]: 75
- Plant response rating, Cocklebur [4, 19]: 20
- Cocklebur plant response rating (0 to 100 scale) [4, 27]: 65
- Plant response rating, Cocklebur [4, 21]: 95
- Plant response rating, Cocklebur [4, 28]: 95
- Plant response rating, Ragweed [5, 19]: 85
- Ragweed plant response rating (0 to 100 scale) [5, 27]: 85
- Plant response rating, Ragweed [5, 28]: 98
- Plant response rating, Foxtail, Green [6, 19]: 70
- Foxtail, Green plant response rating (0 to 100 scale) [6, 27]: 85
- Plant response rating, Foxtail, Green [6, 28]: 98
- Plant response rating, Oat, Wild [7, 19]: 30
- Oat, Wild plant response rating (0 to 100 scale) [7, 27]: 30
- Plant response rating, Oat, Wild [7, 28]: 50
- Plant response rating, Velvetleaf [8, 19]: 98
- Velvetleaf plant response rating (0 to 100 scale) [8, 27]: 100
- Plant response rating, Velvetleaf [8, 28]: 100
- Plant response rating, Bermudagrass [9, 19]: 75
- Bermudagrass plant response rating (0 to 100 scale) [9, 27]: 95
- Plant response rating, Bermudagrass [9, 21]: 95
- Plant response rating, Bermudagrass [9, 28]: 95
- Plant response rating, Soybean [10, 19]: 75
- Soybean plant response rating (0 to 100 scale) [10, 27]: 85
- Plant response rating, Soybean [10, 28]: 98
- Plant response rating, Bromegrass, Downy [11, 19]: 0
- Bromegrass, Downy plant response rating (0 to 100 scale) [11, 27]: 5
- Plant response rating, Bromegrass, Downy [11, 21]: 5
- Plant response rating, Bromegrass, Downy [11, 28]: 30
- Plant response rating, Foxtail, Giant [12, 19]: 85
- Foxtail, Giant plant response rating (0 to 100 scale) [12, 27]: 98
- Plant response rating, Foxtail, Giant [12, 28]: 98
- Plant response rating, Wheat [13, 19]: 0
- Wheat plant response rating (0 to 100 scale) [13, 27]: 10
- Plant response rating, Wheat [13, 28]: 50
- Plant response rating, Nutsedge, Yellow [14, 19]: 50
- Nutsedge, Yellow plant response rating (0 to 100 scale) [14, 27]: 65
- Plant response rating, Nutsedge, Yellow [14, 28]: 75
- Plant response rating, Blackgrass [15, 19]: 10
- Blackgrass plant response rating (0 to 100 scale) [15, 27]: 20
- Plant response rating, Blackgrass [15, 21]: 30
- Plant response rating, Blackgrass [15, 28]: 50
- Plant response rating, Morningglory [16, 19]: 75
- Morningglory plant response rating (0 to 100 scale) [16, 27]: 90
- Plant response rating, Morningglory [16, 28]: 98
- Plant response rating, Johnsongrass [17, 19]: 65
- Johnsongrass plant response rating (0 to 100 scale) [17, 27]: 90
- Plant response rating, Johnsongrass [17, 28]: 100
- Plant response rating, Kochia [18, 19]: 20
- Kochia plant response rating (0 to 100 scale) [18, 27]: 80
- Plant response rating, Kochia [18, 28]: 95

Reference: US8952024B2, “Herbicidal pyrimidone derivatives” (E I du Pont de Nemours and Company, priority 2009, dated 2015)
